Assay results: the NIST ThermoML archive (doi:10.1016/j.jct.2006.04.005)

What was measured:
[1] = 303.15 K, 101 kPa, Liquid; for viscosity: Capillary tube (Ostwald / Ubbelohde) method; for mass density: Pycnometric method
[2] = xn = mol fraction of the nth substance listed; conditions: 303.15 K, 101 kPa, Liquid; for viscosity: Capillary tube (Ostwald / Ubbelohde) method; for excess molar volume: Direct dilatometry; for mass density: Pycnometric method

Clc1ccc(Cl)c(Cl)c1 [1,2,4-trichlorobenzene]
[1]
Conditions	mass density [kg/m3]	speed of sound [m/s]	viscosity [mPa·s]
–	1442.14	1260	1.613

Clc1ccc(Cl)c(Cl)c1 [1,2,4-trichlorobenzene] + C[S+](C)[O-]
[2]
Conditions	excess molar volume [m3/mol]	mass density [kg/m3]	speed of sound [m/s]	viscosity [mPa·s]
x2 = 0	–	1442.14	1260	1.613
x2 = 0.0911	1.2e-08	–	1253	1.647
x2 = 0.1214	1.6e-08	–	1252	1.658
x2 = 0.1805	2.3e-08	–	1257	1.677
x2 = 0.2144	2.7e-08	–	1259	1.688
x2 = 0.251	3.2e-08	–	1264	1.699
x2 = 0.3225	3.9e-08	–	1274	1.719
x2 = 0.4115	4.6e-08	–	1285	1.742
x2 = 0.467	4.8e-08	–	1296	1.755
x2 = 0.5001	5e-08	–	1302	1.763
x2 = 0.5524	4.8e-08	–	1316	1.773
x2 = 0.6207	4.7e-08	–	1339	1.786
x2 = 0.7005	4e-08	–	1379	1.796
x2 = 0.7829	3e-08	–	1415	1.801
x2 = 0.8014	2.8e-08	–	1423	1.802
x2 = 0.9228	1.2e-08	–	1459	1.803

Clc1ccccc1Cl [1,2-dichlorobenzene]
[1]
Conditions	mass density [kg/m3]	speed of sound [m/s]	viscosity [mPa·s]
–	1299.24	1261	1.302

Clc1ccccc1Cl [1,2-dichlorobenzene] + C[S+](C)[O-]
[2]
Conditions	excess molar volume [m3/mol]	mass density [kg/m3]	speed of sound [m/s]	viscosity [mPa·s]
x2 = 0	–	1299.24	1261	1.302
x2 = 0.104	2.3e-08	–	1264	1.379
x2 = 0.1511	3.3e-08	–	1268	1.409
x2 = 0.2041	4e-08	–	1274	1.443
x2 = 0.2506	4.7e-08	–	1279	1.472
x2 = 0.301	5.3e-08	–	1284	1.502
x2 = 0.4025	6e-08	–	1303	1.56
x2 = 0.4511	6.3e-08	–	1312	1.587
x2 = 0.521	6.5e-08	–	1329	1.623
x2 = 0.6511	5.8e-08	–	1367	1.686
x2 = 0.7221	5.3e-08	–	1394	1.719
x2 = 0.7519	4.9e-08	–	1403	1.73
x2 = 0.8002	4e-08	–	1417	1.751
x2 = 0.8514	3.5e-08	–	1435	1.766
x2 = 0.9019	2.3e-08	–	1446	1.782
x2 = 0.9405	1.3e-08	–	1457	1.782

Clc1cccc(Cl)c1 [1,3-dichlorobenzene]
[1]
Conditions	mass density [kg/m3]	speed of sound [m/s]	viscosity [mPa·s]
–	1277.12	1242	1.025

Clc1cccc(Cl)c1 [1,3-dichlorobenzene] + C[S+](C)[O-]
[2]
Conditions	excess molar volume [m3/mol]	mass density [kg/m3]	speed of sound [m/s]	viscosity [mPa·s]
x2 = 0	–	1277.12	1242	1.025
x2 = 0.0801	1.6e-08	–	1244	1.107
x2 = 0.1124	2.2e-08	–	1248	1.14
x2 = 0.1506	2.7e-08	–	1253	1.181
x2 = 0.2075	3.5e-08	–	1256	1.232
x2 = 0.2511	4e-08	–	1268	1.273
x2 = 0.3162	4.5e-08	–	1387	1.329
x2 = 0.4219	5.3e-08	–	1395	1.419
x2 = 0.4507	5.5e-08	–	1305	1.445
x2 = 0.5005	5.6e-08	–	1345	1.487
x2 = 0.6224	5.4e-08	–	1370	1.586
x2 = 0.6819	5e-08	–	1399	1.632
x2 = 0.7517	4.3e-08	–	1416	1.68
x2 = 0.8015	3.5e-08	–	1431	1.715
x2 = 0.852	2.7e-08	–	1455	1.742
x2 = 0.9221	1.7e-08	–	1467	1.778

Cc1ccccc1Cl [2-chlorotoluene]
[1]
Conditions	mass density [kg/m3]	speed of sound [m/s]	viscosity [mPa·s]
–	1072.81	1284	0.887

Cc1ccccc1Cl [2-chlorotoluene] + C[S+](C)[O-]
[2]
Conditions	excess molar volume [m3/mol]	mass density [kg/m3]	speed of sound [m/s]	viscosity [mPa·s]
x2 = 0	–	1072.81	1284	0.887
x2 = 0.104	1.1e-08	–	1303	1.013
x2 = 0.1845	2.1e-08	–	1324	1.123
x2 = 0.2141	2.5e-08	–	1330	1.16
x2 = 0.2552	2.9e-08	–	1343	1.209
x2 = 0.3075	3.3e-08	–	1352	1.266
x2 = 0.376	3.9e-08	–	1369	1.342
x2 = 0.4079	4.2e-08	–	1377	1.375
x2 = 0.5224	4.6e-08	–	1403	1.49
x2 = 0.551	4.5e-08	–	1410	1.518
x2 = 0.6005	4.2e-08	–	1422	1.564
x2 = 0.7241	3.1e-08	–	1446	1.667
x2 = 0.761	2.7e-08	–	1450	1.69
x2 = 0.8011	2.3e-08	–	1460	1.724
x2 = 0.8711	1.6e-08	–	1464	1.773

Cc1ccccc1[N+](=O)[O-] [2-nitrotoluene] + C[S+](C)[O-]
[2]
Conditions	excess molar volume [m3/mol]	mass density [kg/m3]	speed of sound [m/s]	viscosity [mPa·s]
x2 = 0	–	1153.24	–	1.911
x2 = 0.0815	2.3e-08	–	2039	1.903
x2 = 0.1525	5.4e-08	–	1986	1.896
x2 = 0.2422	9.3e-08	–	1922	1.888
x2 = 0.2913	1.13e-07	–	1888	1.883
x2 = 0.3415	1.28e-07	–	1849	1.878
x2 = 0.4026	1.45e-07	–	1807	1.872
x2 = 0.4505	1.55e-07	–	1773	1.867
x2 = 0.5119	1.58e-07	–	1731	1.861
x2 = 0.5523	1.59e-07	–	1704	1.857
x2 = 0.602	1.54e-07	–	1674	1.852
x2 = 0.6521	1.43e-07	–	1645	1.847
x2 = 0.7122	1.25e-07	–	1612	1.841
x2 = 0.7516	1.13e-07	–	1591	1.836
x2 = 0.8115	8.5e-08	–	1564	1.829
x2 = 0.9227	3.5e-08	–	1508	1.814

Cc1cccc(Cl)c1 [3-chlorotoluene] + C[S+](C)[O-]
[2]
Conditions	excess molar volume [m3/mol]	mass density [kg/m3]	speed of sound [m/s]	viscosity [mPa·s]
x2 = 0	–	1065.21	1280	0.78
x2 = 0.0868	1.2e-08	–	1300	1.02
x2 = 0.1205	1.7e-08	–	1308	1.073
x2 = 0.1911	2.8e-08	–	1324	1.164
x2 = 0.2207	3.1e-08	–	–	1.203
x2 = 0.261	3.7e-08	–	1342	1.249
x2 = 0.3125	4.1e-08	–	1356	1.305
x2 = 0.3829	4.7e-08	–	1372	1.38
x2 = 0.4156	4.9e-08	–	1382	1.415
x2 = 0.502	5.2e-08	–	1404	1.503
x2 = 0.5419	5e-08	–	1412	1.541
x2 = 0.6205	4.7e-08	–	1429	1.602
x2 = 0.7125	3.7e-08	–	1450	1.674
x2 = 0.7517	3.3e-08	–	1457	1.704
x2 = 0.824	2.5e-08	–	1468	1.735
x2 = 0.9246	1.3e-08	–	1469	1.783

Cc1cccc([N+](=O)[O-])c1 [3-nitrotoluene] + C[S+](C)[O-]
[2]
Conditions	excess molar volume [m3/mol]	mass density [kg/m3]	speed of sound [m/s]	viscosity [mPa·s]
x2 = 0	–	1147.67	–	1.777
x2 = 0.1052	3.9e-08	–	2002	1.78
x2 = 0.1512	6e-08	–	1964	1.781
x2 = 0.1921	7.9e-08	–	1936	1.782
x2 = 0.2216	9.2e-08	–	1909	1.783
x2 = 0.272	1.14e-07	–	1876	1.784
x2 = 0.305	1.28e-07	–	1851	1.785
x2 = 0.3641	1.52e-07	–	1812	1.786
x2 = 0.4121	1.62e-07	–	1778	1.787
x2 = 0.4772	1.77e-07	–	–	1.789
x2 = 0.5226	1.83e-07	–	1711	1.79
x2 = 0.6035	1.75e-07	–	1661	1.792
x2 = 0.724	1.46e-07	–	1598	1.794
x2 = 0.8126	1.07e-07	–	1555	1.796
x2 = 0.8905	6.2e-08	–	1518	1.799
x2 = 0.9607	2.5e-08	–	1489	1.801

Cc1ccc(Cl)cc1 [4-chlorotoluene] + C[S+](C)[O-]
[2]
Conditions	excess molar volume [m3/mol]	mass density [kg/m3]	speed of sound [m/s]	viscosity [mPa·s]
x2 = 0	–	1060.54	1271	0.9
x2 = 0.0768	1.3e-08	–	1292	1.039
x2 = 0.1105	2.3e-08	–	1302	1.094
x2 = 0.1546	2.9e-08	–	1312	1.16
x2 = 0.2045	3.5e-08	–	1327	1.232
x2 = 0.2543	4.1e-08	–	1340	1.287
x2 = 0.3111	4.8e-08	–	1357	1.351
x2 = 0.3704	5.2e-08	–	1372	1.41
x2 = 0.4904	5.7e-08	–	1401	1.521
x2 = 0.5174	5.7e-08	–	1410	1.544
x2 = 0.554	5.6e-08	–	1418	1.573
x2 = 0.6014	5.3e-08	–	1430	1.611
x2 = 0.7074	4.5e-08	–	1453	1.687
x2 = 0.761	3.8e-08	–	1465	1.725
x2 = 0.8214	3.2e-08	–	1467	1.76
x2 = 0.8906	2e-08	–	1468	1.78

C[S+](C)[O-] [dimethyl sulfoxide] + Cc1ccc(Cl)cc1
[2], x1 = 1
Conditions	mass density [kg/m3]	speed of sound [m/s]	viscosity [mPa·s]
–	1091.35	1470	1.803

C[S+](C)[O-] [dimethyl sulfoxide] + Cc1cccc(Cl)c1
[2], x1 = 1
Conditions	mass density [kg/m3]	speed of sound [m/s]	viscosity [mPa·s]
–	1091.35	1470	1.803

C[S+](C)[O-] [dimethyl sulfoxide] + Cc1cccc([N+](=O)[O-])c1
[2], x1 = 1
Conditions	mass density [kg/m3]	speed of sound [m/s]
–	1091.35	1470

C[S+](C)[O-] [dimethyl sulfoxide] + Cc1ccccc1Cl
[2], x1 = 1
Conditions	mass density [kg/m3]	speed of sound [m/s]
–	1091.35	1470

C[S+](C)[O-] [dimethyl sulfoxide] + Cc1ccccc1[N+](=O)[O-]
[2], x1 = 1
Conditions	mass density [kg/m3]	speed of sound [m/s]	viscosity [mPa·s]
–	1091.35	1470	1.803

C[S+](C)[O-] [dimethyl sulfoxide] + Clc1ccc(Cl)c(Cl)c1
[2], x1 = 1
Conditions	mass density [kg/m3]	speed of sound [m/s]
–	1091.35	1470

C[S+](C)[O-] [dimethyl sulfoxide] + Clc1cccc(Cl)c1
[2], x1 = 1
Conditions	mass density [kg/m3]	speed of sound [m/s]
–	1091.35	1470

C[S+](C)[O-] [dimethyl sulfoxide] + Clc1ccccc1Cl
[2], x1 = 1
Conditions	mass density [kg/m3]	speed of sound [m/s]	viscosity [mPa·s]
–	1091.35	1470	1.803
